Data published in patent publication US7812121B2 (priority 2006, dated 2010).
Values belong to the molecule of their own block, whether it stands above or below them.

Key:
CD1 mice = assay: Mucosal weight gain in small intestine, 10 days daily s.c. dosing; format: in vivo; settings: 2.5 mg/kg (13.3 nmole), p<0.0001
From the text: Afterwards, the mice were euthanized and the small intestines were removed, flushed with saline, and processed as described below.
Specifically, 4 cm sections were harvested: (1) immediately distal to the pylorus (duodenum), (2) starting 2 cm distal of the ligament of Treitz (jejunum), and (3) immediately proximal to the cecum (ileum). The remaining small intestine from ˜6 cm distal of the ligament of Treitz to 4 cm proximal to the cecum was used to prepare mucosal scrapings. From the proximal and distal ends of the remnant, an equal distance was removed until a 15 cm section remained, the remnant was cut longitudinally, rinsed, and the mucosal layer was removed using the short end of a glass microscope slide. The wet weight of the intact intestinal segments and mucosa was measured.

[1] = SEC-SLS solution molecular weight / self-association; format: physicochemical; settings: PBS (pH 7.5), 1 mg/ml
Description: Solution molecular weight of the peptides was measured by SEC-SLS. Briefly, peptide solutions in PBS (pH 7.5) at 0.4 to 2.0 mg/mL were fractionated over a Superdex peptide column (Amersham Pharmacia). The eluted peaks were monitored by static light scattering at 690 nm and solution molecular weight was determined at UV 280 nm using the Astra software package (Wyatt Inc.).

[2] = CD spectra secondary structure; format: physicochemical; settings: 0.2 mg/mL peptide in PBS, 25° C.
Description: The secondary structures of tested peptides were determined using 0.2 mg/mL peptide solutions in PBS. Briefly, CD spectra were collected in triplicate at 1 nm intervals at 25° C. in 0.1 cm path length cell. Secondary structures were determined by fitting of the CD spectra using CD spectra software (CD Spectra Deconvolution software 2.1). All tested peptides contained peaks corresponding to the presence of alpha helices.

normal mice = assay: Upper gastrointestinal transit, carmine dye technique; format: in vivo; settings: 50 μg/mouse daily s.c. for 10 days, 20-minute test period, vs PBS vehicle
Description: To test the effects of A2G-GLP-2 on upper gastrointestinal transit in normal mice, mice were randomly assigned to 2 groups (14 animals per test group). Each group received daily subcutaneous injection (total volume […]) of either A2G-GLP-2 peptide (50 μg/mouse) or the phosphate-buffered saline vehicle for 10 consecutive days.
On the day of study, upper gastrointestinal transit was measured using the carmine dye technique. Mice were fed a test meal of 0.25 ml of a 6% (w/v) solution of carmine cochineal powder mixed into 0.5% (w/v) methylcellulose administered intragastrically by an 18 gauge curved feeding tube. Following oral test meal administration, mice were replaced into their home cages. Twenty minutes after marker meal administration, mice were rapidly euthanized by cervical dislocation and the entire gastrointestinal tract was excised starting from the distal colon and working towards the gastric pylorus. […] The linear distance traversed by the carmine dye front through the small intestine was measured together with the total length of the small bowel. Upper gastrointestinal transit was expressed as the percentage of the entire small intestine traversed by the carmine dye front during the 20-minute test period; % small intestine traveled=[distance traversed by dye front through small intestine (cm)/entire small intestine length (cm)×100].

CD-1 mice = assay: Gastrointestinal transit in post-operative inflammatory ileus; format: in vivo; settings: 2 mg/kg one hour before surgery, FITC-dextran 48 hr after operation, 45 minutes
Description: On the day of study, upper gastrointestinal transit was measured using the FITC-dextran method. This method provides both, a measure of gastrointestinal transit and a readout of the pattern of distribution of the test meal along the gastrointestinal tract. Mice were fed a test meal of […] of FITC-dextran solution (5 mg/ml of 70,000 molecular weight dextran conjugated to fluorescein-isothiocyanate in 0.5% methylcellulose/deionized water) administered intragastrically by an 18 gauge curved feeding tube. Following oral administration of the FITC-dextran test meal, mice were returned to their home cages. It was shown that a 30 min test period was the optimum duration for detecting accelerated transit, while a 45 min test period was optimum for detecting delayed transit. Following the appropriate test period, mice were sacrificed by carbon dioxide exposure. The entire gastrointestinal tract from the lower esophageal sphincter to the terminal colon was removed. […] Aliquots of the cleared supernatant were read in duplicate on a 96-well fluorescence plate reader to quantify the magnitude of the fluorescent signal in each segment of bowel. […] The GC is calculated in the lower panel for statistical comparison. […]
All mice received an oral test meal of FITC-dextran 48 hr after the operation. Gastrointestinal transit was determined 45 minutes after oral feeding. […]

mice = assay: Myeloperoxidase histochemistry of intestinal muscularis in post-operative inflammatory ileus; format: in vivo; settings: 2 mg/kg one hour before surgery, tissue 48 hr after operation
Description: Myeloperoxidase histochemistry was performed on tissues harvested from the mid-small bowel of the mice 48 hr after the operation.
Briefly, segments of mid-small bowel were collected from the centrifuge tubes described in Example 12. Whole mounts of the muscle layer were prepared by pinning the tissue flat in a Sylgard® lined Petri dish and stretching the tissue to 2 times its length and 1.5 times its width. The mucosa was removed by fine dissection. The muscularis whole mounts were then fixed with 100% ethanol for 1 hr, washed 3 times with PBS, and incubated for 20 min in PBS containing 0.1% hydrogen peroxide and 1 mg/ml Hanker-Yates reagent. Following a second wash with PBS, the whole mounts were mounted on glass slides, cover-slipped, and viewed on an optical microscope. Myeloperoxidase containing leukocytes were counted in 6 to 8 adjacent 200× optical fields of view and the mean cell counts were calculated and recorded.

SEC-SLS elution / association state of peptides [1]: overlapping dimer and monomer peaks | Helix [2]: 20.7% | Random coil [2]: 37.1%
Molecule: CC[C@H](C)[C@H](NC(=O)[C@H](Cc1ccccc1)NC(=O)[C@H](CC(=O)O)NC(=O)[C@H](CCCNC(=N)N)NC(=O)[C@H](C)NC(=O)[C@H](C)NC(=O)[C@H](CC(C)C)NC(=O)[C@H](CC(N)=O)NC(=O)[C@H](CC(=O)O)NC(=O)[C@H](CC(C)C)NC(=O)[C@@H](NC(=O)[C@@H](NC(=O)[C@H](CC(N)=O)NC(=O)[C@H](CCSC)NC(=O)[C@H](CCC(=O)O)NC(=O)[C@H](CC(=O)O)NC(=O)[C@H](CO)NC(=O)[C@H](Cc1ccccc1)NC(=O)[C@H](CO)NC(=O)CNC(=O)[C@H](CC(=O)O)NC(=O)CNC(=O)[C@@H](N)Cc1c[nH]cn1)[C@@H](C)O)[C@@H](C)CC)C(=O)N[C@@H](CC(N)=O)C(=O)N[C@@H](Cc1c[nH]c2ccccc12)C(=O)N[C@@H](CC(C)C)C(=O)N[C@H](C(=O)N[C@@H](CCC(N)=O)C(=O)N[C@H](C(=O)N[C@@H](CCCCN)C(=O)N[C@H](C(=O)N[C@H](C(=O)N[C@@H](CC(=O)O)C(=O)O)[C@@H](C)O)[C@@H](C)CC)[C@@H](C)O)[C@@H](C)CC [SEQ ID NO: 3, GLP-2(A2G), reference compound]
increase in mucosal wet weight (CD1 mice): statistically significant increase | upper gastrointestinal transit (normal mice; listed as A2G-GLP-2): acceleration of upper gastrointestinal transit | upper gastrointestinal transit (normal mice; listed as A2G-GLP-2 peptide): significant acceleration of intestinal transit

B1: SEQ ID NO: 80: human A2G-GLP2 peptide in murine IgG2a scaffold (protein)
chain: HGDGSFSDEMNTILDNLAARDFINWLIQTKITDGSGGGSGTTVTVSAEPRGPTIKPCPPCKCPAPNAAGGPSVFIFPPKIKDVLMISLSPIVTCVVVDVSEDDPDVQISWFVNNVEVHTAQTQTHREDYNSTLRVVSALPIQHQDWMSGKEFKCKVNNKDLPAPIERTISKPKGSVRAPQVYVLPPPEEEMTKKQVTLTCMVTDFMPEDIYVEWTNNGKTELNYKNTEPVLDSDGSYFMYSKLRVEKKNWVERNSYSCSVVHEGLHNHHTTKSFSRTPGK
modifications: Human A2G-GLP2 peptide in murine IgG2a scaffold
gastrointestinal transit after abdominal surgery (CD-1 mice; listed as murine A2G GLP-2 mimetibody): significant attenuation of the delay in gastrointestinal transit | gastrointestinal transit after abdominal surgery (CD-1 mice; listed as murine A2G-GLP-2 mimetibody): significant improvement in transit | number of MPO-positive leukocytes infiltrating small intestinal muscle layer (mice): significantly reduced the number of infiltrating cells
